Patent US20230212229A1 (priority 2021, published 2023)
“And” between values parts separate entries of the source, which are not always exact repeats. Equal values may be shown once. Read-outs that look alike come from different tables or passages of the source.

Key:
Isg56 mRNA = assay type: in vivo, ACE2 transgenic mice; conditions: for Isg56 mRNA: relative to unstimulated mice, individual mice n = 8
SARS-CoV-2 N protein = conditions: 0.5 mg NIP-V; lungs 24 h after infection; versus PBS+SARS-CoV-2
MAVS oligomerization = assay type: cell-based; conditions: HEK 293T, Myc-NP transfected; 50 μM or 100 μM NIP-V 1 h before SeV stimulation for 8 h
SARS-CoV-2 [1] = assay type: in vivo, ACE2 transgenic mice; conditions: lungs 24 h after infection
IFN-β = assay type: in vivo, ACE2 transgenic mice; conditions: for IFN-β in serum: 0.5 mg NIP-V, individual mice n = 8
SARS-CoV-2 S protein = assay type: in vivo, ACE2 transgenic mice; conditions: 0.5 mg NIP-V; lungs 24 h after infection; versus PBS+SARS-CoV-2
SARS-CoV-2 [2] = assay type: in vivo, ACE2 transgenic mice; conditions: for SARS-CoV-2 copies/μL: lung tissue, 0.5 mg NIP-V injected 1 h before intranasal 1×10^5 TCID50, individual mice n = 8
Ifnb1 mRNA = assay type: in vivo, ACE2 transgenic mice; conditions: for Ifnb1 mRNA: relative to unstimulated mice, individual mice n = 8
SARS-CoV-2 genomic RNA = experiment: qPCR of the load of SARS-CoV-2 genomic RNA in spleen, liver and lung tissues; assay type: in vivo, ACE2 transgenic mice; conditions: for SARS-CoV-2 genomic RNA: individual mice n = 8
[3] = NIP-V treatment versus PBS-treated group

## IHKNLLIVQDKFPPRRRQRRKKRG [NIP-V, interfering peptide targeting amino acids 346 to 357 of the SARS-CoV-2 N protein dimerization domain, fused with HIV-TAT]
Isg56 mRNA; Liver, 16 h
  Isg56 mRNA: 30.49 Fold and 18.13 Fold and 27.16 Fold and 42.29 Fold and 27.58 Fold and 35.86 Fold and 25.80 Fold and 29.09 Fold
Isg56 mRNA; Liver, 24 h
  Isg56 mRNA: 14.51 Fold and 10.01 Fold and 7.41 Fold and 10.47 Fold and 12.89 Fold and 12.03 Fold and 9.46 Fold and 5.61 Fold
Isg56 mRNA; Lung, 16 h
  Isg56 mRNA: 92.65 Fold and 109.88 Fold and 67.64 Fold and 46.59 Fold and 99.03 Fold and 85.62 Fold and 91.13 Fold and 26.35 Fold
Isg56 mRNA; Lung, 24 h
  Isg56 mRNA: 232.32 Fold and 263.20 Fold and 152.15 Fold and 131.60 Fold and 144.01 Fold and 188.71 Fold and 205.07 Fold and 374.81 Fold
Isg56 mRNA; [3]
  expression of Isg56 mRNA in spleen, liver and lung tissues (in words): increase the expression
Isg56 mRNA; Spleen, 16 h
  Isg56 mRNA: 121.34 Fold and 87.49 Fold and 110.12 Fold and 85.19 Fold and 94.54 Fold and 59.17 Fold and 76.17 Fold and 82.88 Fold
Isg56 mRNA; Spleen, 24 h
  Isg56 mRNA: 73.25 Fold and 63.36 Fold and 55.41 Fold and 62.68 Fold and 45.16 Fold and 32.90 Fold and 56.97 Fold and 36.50 Fold
SARS-CoV-2 N protein
  SARS-CoV-2 N protein signal in lung tissue (immunofluorescence): weaker N protein signals can be detected
MAVS oligomerization
  MAVS oligomerization inhibited by SARS-CoV-2 N protein (SDD-PAGE): restore the MAVS oligomerization in a dose-dependent manner
SARS-CoV-2 [1]; 0.5 mg NIP-V 1 h before infection, versus PBS+SARS-CoV-2
  lung lesions caused by SARS-CoV-2 infection (HE staining): significantly reduce the lung lesions
SARS-CoV-2 [1]; 0.5 mg NIP-V
  thickening of alveolar septa (HE staining): not significant
SARS-CoV-2 [1]; 0.5 mg NIP-V, versus PBS+SARS-CoV-2 group
  occurrence of hemagglutination and inflammatory cell infiltration (HE staining): significantly lower than that in the PBS+SARS-CoV-2 group
IFN-β; NIP-V-treated groups versus PBS-treated groups, 16 h and 24 h
  content of IFN-β in serum (in words): significantly higher than that in the PBS-treated group
IFN-β; 16 h after SARS-CoV-2 infection
  IFN-β in serum: 52.44 pg/mL and 46.60 pg/mL and 50.21 pg/mL and 75.33 pg/mL and 37.97 pg/mL and 52.98 pg/mL and 68.93 pg/mL and 48.49 pg/mL
IFN-β; 24 h after SARS-CoV-2 infection
  IFN-β in serum: 38.29 pg/mL and 38.61 pg/mL and 34.78 pg/mL and 30.95 pg/mL and 44.88 pg/mL and 37.02 pg/mL and 35.42 pg/mL and 45.20 pg/mL
SARS-CoV-2 S protein
  SARS-CoV-2 S protein signal in lung tissue (immunohistochemistry): much lower than that of the PBS+SARS-CoV-2 treated mice
SARS-CoV-2 [2]; NIP-V-treated groups (2 and 4) versus PBS-treated groups, 16 h and 24 h
  SARS-CoV-2 viral load in lung tissue (in words): greatly reduced
SARS-CoV-2 [2]; 16 h after infection
  SARS-CoV-2 copies/μL: 30 copies/μL and 76 copies/μL and 0 copies/μL (3×) and 2484 copies/μL and 131 copies/μL and 726 copies/μL
SARS-CoV-2 [2]; 24 h after infection
  SARS-CoV-2 copies/μL: 3 copies/μL and 0 copies/μL (7×)
Ifnb1 mRNA; Liver, 16 h
  Ifnb1 mRNA: 52.55 Fold and 86.45 Fold and 85.91 Fold and 111.15 Fold and 85.02 Fold and 132.00 Fold and 68.88 Fold and 81.36 Fold
Ifnb1 mRNA; Liver, 24 h
  Ifnb1 mRNA: 22.59 Fold and 79.02 Fold and 29.53 Fold and 33.69 Fold and 42.93 Fold and 49.66 Fold and 31.43 Fold and 45.92 Fold
Ifnb1 mRNA; Lung, 16 h
  Ifnb1 mRNA: 186.37 Fold and 302.75 Fold and 202.16 Fold and 145.17 Fold and 113.93 Fold and 133.62 Fold and 259.88 Fold and 148.33 Fold
Ifnb1 mRNA; Lung, 24 h
  Ifnb1 mRNA: 82.49 Fold and 165.42 Fold and 112.99 Fold and 126.62 Fold and 84.22 Fold and 36.61 Fold and 22.54 Fold and 46.19 Fold
Ifnb1 mRNA; [3]
  expression of Ifnb1 mRNA in spleen, liver and lung tissues (in words): increase the expression
Ifnb1 mRNA; Spleen, 16 h
  Ifnb1 mRNA: 87.27 Fold and 42.74 Fold and 73.72 Fold and 58.30 Fold and 67.91 Fold and 98.19 Fold and 64.75 Fold and 70.43 Fold
Ifnb1 mRNA; Spleen, 24 h
  Ifnb1 mRNA: 45.66 Fold and 36.50 Fold and 51.66 Fold and 47.70 Fold and 40.76 Fold and 71.38 Fold and 47.81 Fold and 45.86 Fold
SARS-CoV-2 genomic RNA; Liver, 16 h
  SARS-CoV-2 genomic RNA: 2.09E+02 Fold and 1.42E+02 Fold and 8.55E+01 Fold and 1.08E+02 Fold and 1.69E+02 Fold and 6.80E+02 Fold and 8.67E+01 Fold and 2.38E+02 Fold
SARS-CoV-2 genomic RNA; Liver, 24 h
  SARS-CoV-2 genomic RNA: 6.41E+01 Fold and 4.17E+01 Fold and 4.33E+01 Fold and 1.70E+02 Fold and 5.83E+01 Fold and 5.13E+01 Fold and 3.93E+01 Fold and 2.38E+01 Fold
SARS-CoV-2 genomic RNA; Lung, 16 h
  SARS-CoV-2 genomic RNA: 5.93E+03 Fold and 4.43E+03 Fold and 2.73E+03 Fold and 1.61E+04 Fold and 1.86E+04 Fold and 1.48E+04 Fold and 8.10E+03 Fold and 3.62E+03 Fold
SARS-CoV-2 genomic RNA; Lung, 24 h
  SARS-CoV-2 genomic RNA: 4.74E+03 Fold and 3.19E+03 Fold and 3.72E+03 Fold and 1.23E+03 Fold and 1.56E+03 Fold and 1.26E+03 Fold and 1.49E+04 Fold and 0.00E+00 Fold
SARS-CoV-2 genomic RNA; Spleen, 16 h
  SARS-CoV-2 genomic RNA: 1.66E+03 Fold and 1.40E+03 Fold and 1.37E+03 Fold and 4.78E+02 Fold and 1.60E+03 Fold and 8.65E+02 Fold and 1.33E+03 Fold and 1.15E+03 Fold
SARS-CoV-2 genomic RNA; Spleen, 24 h
  SARS-CoV-2 genomic RNA: 4.18E+02 Fold and 3.11E+02 Fold and 2.38E+02 Fold and 1.85E+02 Fold and 4.43E+02 Fold and 1.35E+02 Fold and 2.56E+02 Fold and 7.20E+02 Fold
SARS-CoV-2 genomic RNA; spleen, liver and lung, NIP-V treatment versus PBS-treated group
  proliferation of SARS-CoV-2 in tissues (qPCR, in words): inhibit the proliferation of SARS-CoV-2
